From US11787810B2, “Diacylglyceride O-acyltransferase 2 inhibitors” (Merck Sharp & Dohme Corp., priority 2020, dated 2023) come the findings set out here.

human DGAT2 (hDGAT2), sequence (Q96PD7 whole entry): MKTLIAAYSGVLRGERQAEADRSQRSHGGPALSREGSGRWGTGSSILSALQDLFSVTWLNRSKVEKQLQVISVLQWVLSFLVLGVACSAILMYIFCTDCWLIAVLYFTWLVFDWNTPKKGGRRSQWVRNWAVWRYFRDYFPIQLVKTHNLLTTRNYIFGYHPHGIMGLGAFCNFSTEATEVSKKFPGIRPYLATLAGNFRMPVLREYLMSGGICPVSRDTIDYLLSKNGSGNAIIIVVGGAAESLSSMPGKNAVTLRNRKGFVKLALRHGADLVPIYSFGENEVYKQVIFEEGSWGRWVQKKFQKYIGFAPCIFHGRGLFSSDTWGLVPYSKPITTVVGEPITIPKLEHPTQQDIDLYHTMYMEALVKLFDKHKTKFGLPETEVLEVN

The assay concerns the target human DGAT2 (hDGAT2) (Homo sapiens (Human), UniProt Q96PD7). Kind of assay: DGAT2 enzymatic activity assay (13C18-triolein formation, LC/MS/MS). The note with it: hDGAT2 Sf-9 membrane prep, 25 μM diolein, 5 μM 13C oleoyl-CoA; read-out: Human DGAT2 IC50. In kind it is biochemical. The protocol:
Sf-9 insect cells were maintained in Grace's insect cell culture medium with 10% heated-inactivated fetal bovine serum, 1% Pluronic F-68 and 0.14 μg/ml Kanamycine sulfate at 27° C. in a shaker incubator. After infection with untagged baculovirus expressing human DGAT2 (hDGAT2) at multiplicity of infection (MOI) 3 for 48 hours, cells were harvested. Cell pellets were suspended in buffer containing 10 mM Tris-HCl pH 7.5, 1 mM EDTA, 250 mM sucrose and Complete Protease Inhibitor Cocktail (Sigma Aldrich), and sonicated on ice. Cell debris were removed by centrifugation at 2000×g for 15 minutes. Membrane fractions were isolated by ultracentrifugation (100,000×g), resuspended in the same buffer, and frozen (−80° C.) for later use. The protein concentration was determined with the Pierce™ BCA Protein Assay Kit (Thermo Fisher Scientific). Expression of protein levels was analyzed by immunoblotting with rabbit anti-DGAT2 antibody (Abcam, ab102831) and donkey anti-rabbit IgG H&L Alexa Fluor® 647 (Abcam, ab150075) followed by detection using Typhoon FLA9000 (GE Healthcare).
LC/MS/MS analyses were performed using Thermal Fisher's LX4-TSQ Vantage system. This system consists of an Agilent binary high-performance liquid chromatography (HPLC) pumps and a TSQ Vantage triple quadrupole MS/MS instrument. For each sample, 2 μL samples from the top organic layer of in-plate liquid-liquid extraction were injected onto a Thermo Betabasic C4 column (2.1 mm×20 mm, 5 μm particle size). The samples were then eluted using the following conditions; mobile phase: Isopropanol:acetonitrile/10 mM ammonium formate=50/35/15 (v/v/v), flow rate: 0.8 mL/min, temperature: 25° C. Data was acquired in positive mode using a heated electrospray ionization (HESI) interface. The operational parameters for the TSQ Vantage MS/MS instrument were a spray voltage of 3000 V, capillary temperature of 280° C., vaporizer temperature 400° C., sheath gas 45 arbitrary unit, Aux gas 10 arbitrary units, S-lens 165 and collision gas 1.0 mTorr. […] (SRM) chromatograms of ^13C18-triolein (Q1: 920.8>Q3:621.3) and internal standard ^13C21-triolein (Q1: 923.8>Q3:617.3) were collected for 33 sec. The peak area was integrated by Xcalibur Quan software. The ratio between the ^13C18triolein generated in the reaction and spiked in internal standard ^13C21-triolein was used to generate percentage inhibition and IC50 values. Compound percentage inhibition was calculated by the following formula: Inhibition %=1-[(compound response−low control)/(high control−low control)]×100%. Potent compounds were titrated and IC50 were calculated by 4 parameter sigmoidal curve fitting formula.
DGAT2 activity was determined by measuring the amount of enzymatic product ^13C18-triolein (^13C-1,2,3-Tri(cis-9-octadecenoyl)glycerol) using the membrane prep mentioned above. The assay was carried out in ABgene 384-well assay plates in a final volume of 25 μL at rt. The assay mixture contained the following: assay buffer (100 mM Tris·Cl, pH 7.0, 20 mM MgCl2, 5% ethanol), 25 μM of diolein, 5 μM of ^13C oleoyl-CoA and 8 ng/μL of DGAT2 membrane.
In the case of `CC(C)n1nc(-c2cccc(OC(F)F)c2)c2ncc(C(=O)NC(CO)C(F)(F)F)cc21` (racemic) [Example 52, 3-(3-(difluoromethoxy)phenyl)-1-isopropyl-N-(1,1,1-trifluoro-3-hydroxypropan-2-yl)-1H-pyrazolo[4,3-b]pyridine-6-carboxamide], the IC50 worked out at 41 nM.
Next, `CC(C)n1nc(-c2cccc(OC(F)F)c2)c2ncc(C(=O)NC3(CO)CCOC3)cc21` (single isomer, unassigned) [Example 39a, 3-[3-(difluoromethoxy)phenyl]-N-[3-(hydroxymethyl)tetrahydrofuran-3-yl]-1-isopropyl-pyrazolo[4,3-b]pyridine-6-carboxamide]: 19 nM.
The result for `CC(C)n1nc(-c2cccc(OC(F)F)c2)c2ncc(C(=O)NC3(CO)CCOC3)cc21` (single isomer, unassigned) [Example 39b, 3-[3-(difluoromethoxy)phenyl]-N-[3-(hydroxymethyl)tetrahydrofuran-3-yl]-1-isopropyl-pyrazolo[4,3-b]pyridine-6-carboxamide] reads 38 nM; that for `CC(O)C(C)NC(=O)c1cnc2c(-c3cccc(OC(F)F)c3)nn(C(C)C)c2c1` (single isomer, unassigned) [Example 45b, 3-(3-(difluoromethoxy)phenyl)-N-(3-hydroxybutan-2-yl)-1-isopropyl-1H-pyrazolo[4,3-b]pyridine-6-carboxamide], 520 nM.
`CC(O)C(C)NC(=O)c1cnc2c(-c3cccc(OC(F)F)c3)nn(C(C)C)c2c1` (single isomer, unassigned) [Example 45c, 3-(3-(difluoromethoxy)phenyl)-N-(3-hydroxybutan-2-yl)-1-isopropyl-1H-pyrazolo[4,3-b]pyridine-6-carboxamide]: the IC50 worked out at 498 nM.
In the case of `CC(O)C(C)NC(=O)c1cnc2c(-c3cccc(OC(F)F)c3)nn(C(C)C)c2c1` (single isomer, unassigned) [Example 45d, 3-(3-(difluoromethoxy)phenyl)-N-(3-hydroxybutan-2-yl)-1-isopropyl-1H-pyrazolo[4,3-b]pyridine-6-carboxamide], the IC50 was determined as 2730 nM.
As for `CC(C)n1nc(-c2cccc(OC(F)F)c2)c2ncc(C(=O)NC(C)(C)C(C)O)cc21` (single isomer, unassigned) [Example 46a, 3-(3-(difluoromethoxy)phenyl)-N-(3-hydroxy-2-methylbutan-2-yl)-1-isopropyl-1H-pyrazolo[4,3-b]pyridine-6-carboxamide], the IC50 was 15 nM.
The result for `CC(C)n1nc(-c2cccc(OC(F)F)c2)c2ncc(C(=O)NC(C)(C)C(C)O)cc21` (single isomer, unassigned) [Example 46b, 3-(3-(difluoromethoxy)phenyl)-N-(3-hydroxy-2-methylbutan-2-yl)-1-isopropyl-1H-pyrazolo[4,3-b]pyridine-6-carboxamide] reads 13 nM.
Next, `CC(C)n1nc(-c2cccc(OC(F)F)c2)c2ncc(C(=O)NC3(C(C)(C)O)CCOC3)cc21` (single isomer, unassigned) [Example 47a, 3-(3-(difluoromethoxy)phenyl)-N-(3-(2-hydroxypropan-2-yl)tetrahydrofuran-3-yl)-1-isopropyl-1H-pyrazolo[4,3-b]pyridine-6-carboxamide]: 1410 nM; `CC(C)n1nc(-c2cccc(OC(F)F)c2)c2ncc(C(=O)NC3(C(C)(C)O)CCOC3)cc21` (single isomer, unassigned) [Example 47b, 3-(3-(difluoromethoxy)phenyl)-N-(3-(2-hydroxypropan-2-yl)tetrahydrofuran-3-yl)-1-isopropyl-1H-pyrazolo[4,3-b]pyridine-6-carboxamide]: 50 nM.
Next, `CC(C)n1nc(-c2cccc(OC(F)F)c2)c2ncc(C(=O)NC3(C)CCOC3)cc21` (single isomer, unassigned) [Example 48a, 3-(3-(difluoromethoxy)phenyl)-1-isopropyl-N-(3-methyltetrahydrofuran-3-yl)-1H-pyrazolo[4,3-b]pyridine-6-carboxamide]: 6.3 nM; `CC(C)n1nc(-c2cccc(OC(F)F)c2)c2ncc(C(=O)NC3(C)CCOC3)cc21` (single isomer, unassigned) [Example 48b, 3-(3-(difluoromethoxy)phenyl)-1-isopropyl-N-(3-methyltetrahydrofuran-3-yl)-1H-pyrazolo[4,3-b]pyridine-6-carboxamide]: 16 nM.
As for `CC(C)n1nc(-c2cccc(OC(F)F)c2)c2ncc(C(=O)NC3(C(C)O)CCOC3)cc21` (single isomer, unassigned) [Example 50a, 3-(3-(difluoromethoxy)phenyl)-N-(3-(1-hydroxyethyl)tetrahydrofuran-3-yl)-1-isopropyl-1H-pyrazolo[4,3-b]pyridine-6-carboxamide], the IC50 is 132 nM.
Take `CC(C)n1nc(-c2cccc(OC(F)F)c2)c2ncc(C(=O)NC3(C(C)O)CCOC3)cc21` (single isomer, unassigned) [Example 50b, 3-(3-(difluoromethoxy)phenyl)-N-(3-(1-hydroxyethyl)tetrahydrofuran-3-yl)-1-isopropyl-1H-pyrazolo[4,3-b]pyridine-6-carboxamide]: the IC50 was found to be 31 nM.
The result for `CC(C)n1nc(-c2cccc(OC(F)F)c2)c2ncc(C(=O)NC3(C(C)O)CCOC3)cc21` (single isomer, unassigned) [Example 50c, 3-(3-(difluoromethoxy)phenyl)-N-(3-(1-hydroxyethyl)tetrahydrofuran-3-yl)-1-isopropyl-1H-pyrazolo[4,3-b]pyridine-6-carboxamide] reads 108 nM; that for `CC1(NC(=O)c2cnc3c(-c4cccc(OC(F)F)c4)nn([C@@H]4COC[C@H]4O)c3c2)CS(=O)(=O)C1` (single isomer, unassigned) [Example 53a, 3-(3-(difluoromethoxy)phenyl)-1-((trans)-4-hydroxytetrahydrofuran-3-yl)-N-(3-methyl-1,1-dioxidothietan-3-yl)-1H-pyrazolo[4,3-b]pyridine-6-carboxamide], 16 nM; that for `CC1(NC(=O)c2cnc3c(-c4cccc(OC(F)F)c4)nn([C@@H]4COC[C@H]4O)c3c2)CS(=O)(=O)C1` (single isomer, unassigned) [Example 53b, 3-(3-(difluoromethoxy)phenyl)-1-((trans)-4-hydroxytetrahydrofuran-3-yl)-N-(3-methyl-1,1-dioxidothietan-3-yl)-1H-pyrazolo[4,3-b]pyridine-6-carboxamide], 132 nM.
Next, `C[C@]1(NC(=O)c2cnc3c(-c4cccc(OC(F)F)c4)nn(C4CCOC4)c3c2)CCS(=O)(=O)C1` (single isomer, unassigned) [Example 60a]: 600 nM; `C[C@]1(NC(=O)c2cnc3c(-c4cccc(OC(F)F)c4)nn(C4CCOC4)c3c2)CCS(=O)(=O)C1` (single isomer, unassigned) [Example 60b]: 37 nM; `C[C@]1(NC(=O)c2cnc3c(-c4cccc(OC(F)F)c4)nn(C4CCCOC4)c3c2)CCS(=O)(=O)C1` (single isomer, unassigned) [Example 62a]: 59 nM.
`C[C@]1(NC(=O)c2cnc3c(-c4cccc(OC(F)F)c4)nn(C4CCCOC4)c3c2)CCS(=O)(=O)C1` (single isomer, unassigned) [Example 62b]: the 50% inhibitory concentration (IC50) was 116 nM.
Next, `CCC(C)n1nc(-c2cccc(OC(F)F)c2)c2ncc(C(=O)NC3(C)CS(=O)(=O)C3)cc21` (single isomer, unassigned) [Example 66a, 3-[3-(difluoromethoxy)phenyl]-N-(3-methyl-1,1-dioxo-thietan-3-yl)-1-sec-butyl-pyrazolo[4,3-b]pyridine-6-carboxamide]: 71 nM; `CCC(C)n1nc(-c2cccc(OC(F)F)c2)c2ncc(C(=O)NC3(C)CS(=O)(=O)C3)cc21` (single isomer, unassigned) [Example 66b, 3-[3-(difluoromethoxy)phenyl]-N-(3-methyl-1,1-dioxo-thietan-3-yl)-1-sec-butyl-pyrazolo[4,3-b]pyridine-6-carboxamide]: 1.5 nM.
